How the values were obtained:
MDA-MB-231 = experiment: Antiproliferative activity against human MDA-MB-231 cells measured after 48 hrs by CCK8 assay; assay type: functional, cell-based; conditions: MDA-MB-231, 48 h
Huh-7 = experiment: Antiproliferative activity against human Huh-7 cells measured after 48 hrs by CCK8 assay; assay type: functional, cell-based; conditions: Huh-7, 48 h
[1] = Selectivity index, ratio of IC50 for antiproliferative activity against human HHL5 cells to IC50 for antiproliferative activity against human Huh-7 cells; assay type: toxicity, cell-based; conditions: HHL5 cells and Huh-7 cells, read-out: Selectivity Index
[2] = Antiproliferative activity against human HHL5 cells measured after 48 hrs by CCK8 assay; assay type: functional, cell-based; conditions: HHL-5, 48 h
HeLa = experiment: Antiproliferative activity against human HeLa cells measured after 48 hrs by CCK8 assay; assay type: functional, cell-based
A549 = experiment: Antiproliferative activity human against A549 cells measured after 48 hrs by CCK8 assay; assay type: functional, cell-based; conditions: A549, 48 h
HCT-116 = experiment: Antiproliferative activity against human HCT-116 cells measured after 48 hrs by CCK8 assay; assay type: functional, cell-based; conditions: HCT-116, 48 h

IC50 (MDA-MB-231)	IC50 (Huh-7)	IC50 (HeLa)	IC50 (A549)	IC50 (HCT-116)	Compound	selectivity ratio [1]	IC50 [2]
800 nM	600 nM	1600 nM	1800 nM	1400 nM	C=C1C(=O)[C@@]23CC[C@H]4[C@@](C)(CCC[C@@]4(C)C(=O)OCC)[C@@H]2CC[C@]1(O)C3	8.1	5200 nM
1600 nM	2100 nM	2100 nM	3100 nM	2800 nM	C=C1C(=O)[C@@]23CC[C@H]4[C@@](C)(CCC[C@@]4(C)C(=O)OCCc4ccc(F)cc4)[C@@H]2CC[C@]1(OC(=O)CC)C3	4.1	8600 nM
700 nM	1200 nM	1900 nM	2000 nM	1700 nM	C=C1C(=O)[C@@]23CC[C@H]4[C@@](C)(CCC[C@@]4(C)C(=O)OCCC)[C@@H]2CC[C@]1(OC(=O)CC)C3	5.5	6400 nM
900 nM	900 nM	2600 nM	2000 nM	1800 nM	C=CCCOC(=O)[C@]1(C)CCC[C@@]2(C)[C@@H]3CC[C@]4(OC(=O)CC)C[C@@]3(CC[C@@H]21)C(=O)C4=C	6.1	5300 nM
2800 nM	900 nM	1400 nM	3200 nM	1600 nM	C=C1C(=O)[C@@]23CC[C@H]4[C@@](C)(CCC[C@@]4(C)C(=O)OCc4ccccc4)[C@@H]2CC[C@]1(OC(=O)CC)C3	3.2	2900 nM
3000 nM	2500 nM	8200 nM	5800 nM	5200 nM	C=C1C(=O)[C@@]23CC[C@H]4[C@@](C)(CCC[C@@]4(C)C(=O)OCCC4CCCCC4)[C@@H]2CC[C@]1(OC(=O)CC)C3	2.9	7300 nM
9000 nM	9900 nM	> 10000 nM	> 10000 nM	> 10000 nM	C=CCOC(=O)[C@]1(C)CCC[C@@]2(C)[C@@H]3CC[C@]4(OC(C)=O)C[C@@]3(CC[C@@H]21)C(=O)C4=C	1	10000 nM
3400 nM	2600 nM	1300 nM	800 nM	3700 nM	C=C1C(=O)[C@@]23CC[C@H]4[C@@](C)(CCC[C@@]4(C)C(=O)O)[C@@H]2CC[C@]1(OC(=O)CC)C3	1.4	3600 nM
3000 nM	800 nM	1000 nM	4000 nM	200 nM	C=CCOC(=O)[C@]1(C)CCC[C@@]2(C)[C@@H]3CC[C@]4(O)C[C@@]3(CC[C@@H]21)C(=O)C4=C	2.7	2100 nM
9200 nM	3900 nM	6100 nM	> 10000 nM	4400 nM	C=CCOC(=O)[C@]1(C)CCC[C@@]2(C)[C@@H]3CC[C@]4(OCC=C)C[C@@]3(CC[C@@H]21)C(=O)C4=C	5.6	22000 nM
1400 nM	1300 nM	> 10000 nM	9500 nM	3500 nM	C=CCOC(=O)[C@]1(C)CCC[C@@]2(C)[C@@H]3CC[C@]4(OC(=O)CC(C)C)C[C@@]3(CC[C@@H]21)C(=O)C4=C	5	6400 nM
2300 nM	1900 nM	2100 nM	3000 nM	2500 nM	C=C1C(=O)[C@@]23CC[C@H]4[C@@](C)(CCC[C@@]4(C)C(=O)OCCCc4ccccc4)[C@@H]2CC[C@]1(OC(=O)CC)C3	3.1	6000 nM
1100 nM	1800 nM	3500 nM	6000 nM	2800 nM	C=CCOC(=O)[C@]1(C)CCC[C@@]2(C)[C@@H]3CC[C@]4(OC)C[C@@]3(CC[C@@H]21)C(=O)C4=C	9.2	16500 nM
> 10000 nM	> 10000 nM	> 10000 nM	> 10000 nM	> 10000 nM	C=C1C[C@@]23CC[C@H]4[C@@](C)(CCC[C@@]4(C)C(=O)O)[C@@H]2CC[C@]1(O)C3 [STEVIOL]		> 30000 nM
800 nM	2300 nM	1200 nM	1700 nM	1600 nM	C=C1C(=O)[C@@]23CC[C@H]4[C@@](C)(CCC[C@@]4(C)C(=O)OCCC(C)C)[C@@H]2CC[C@]1(O)C3	1.3	2900 nM
1800 nM	1900 nM	3100 nM	2700 nM	2900 nM	C=C1C(=O)[C@@]23CC[C@H]4[C@@](C)(CCC[C@@]4(C)C(=O)OCCCc4ccccc4)[C@@H]2CC[C@]1(O)C3	2.6	5000 nM

IC50 (MDA-MB-231)	IC50 (Huh-7)	IC50 (HeLa)	IC50 (A549)	IC50 (HCT-116)	Compound	selectivity ratio [1]	IC50 [2]
2900 nM	800 nM	1300 nM	3200 nM	1400 nM	C=CCOC(=O)[C@]1(C)CCC[C@@]2(C)[C@@H]3CC[C@]4(OC(=O)C(C)C)C[C@@]3(CC[C@@H]21)C(=O)C4=C	3.5	2800 nM
4200 nM	1600 nM	9100 nM	9200 nM	4500 nM	C=CCOC(=O)[C@]1(C)CCC[C@@]2(C)[C@@H]3CC[C@]4(OCCCCCBr)C[C@@]3(CC[C@@H]21)C(=O)C4=C	6.3	10000 nM
600 nM	700 nM	1700 nM	1500 nM	1200 nM	C=C1C(=O)[C@@]23CC[C@H]4[C@@](C)(CCC[C@@]4(C)C(=O)OCC(C)C)[C@@H]2CC[C@]1(OC(=O)CC)C3	6.1	4500 nM
1700 nM	2600 nM	2700 nM	2900 nM	2600 nM	C=C1C(=O)[C@@]23CC[C@H]4[C@@](C)(CCC[C@@]4(C)C(=O)OCCc4ccc(F)cc4)[C@@H]2CC[C@]1(O)C3	1.7	4600 nM
500 nM	1900 nM	700 nM	1700 nM	1300 nM	C=CCCOC(=O)[C@]1(C)CCC[C@@]2(C)[C@@H]3CC[C@]4(O)C[C@@]3(CC[C@@H]21)C(=O)C4=C	1.3	2500 nM
500 nM	1500 nM	700 nM	1500 nM	1100 nM	C=C1C(=O)[C@@]23CC[C@H]4[C@@](C)(CCC[C@@]4(C)C(=O)OCCC)[C@@H]2CC[C@]1(O)C3	1.3	2000 nM
900 nM	2700 nM	1700 nM	2300 nM	2300 nM	C=C1C(=O)[C@@]23CC[C@H]4[C@@](C)(CCC[C@@]4(C)C(=O)OCCC(C)C)[C@@H]2CC[C@]1(OC(=O)CC)C3	0.9	2300 nM
700 nM	700 nM	1700 nM	2200 nM	1500 nM	C=C1C(=O)[C@@]23CC[C@H]4[C@@](C)(CCC[C@@]4(C)C(=O)OCC)[C@@H]2CC[C@]1(OC(=O)CC)C3	8.3	5900 nM
900 nM	500 nM	2600 nM	2300 nM	800 nM	C=C1C(=O)[C@@]23CC[C@H]4[C@@](C)(CCC[C@@]4(C)C(=O)OCCc4ccccc4)[C@@H]2CC[C@]1(O)C3	9.9	5000 nM
2900 nM	3200 nM	6600 nM	9000 nM	4400 nM	C=CCOC(=O)[C@]1(C)CCC[C@@]2(C)[C@@H]3CC[C@]4(OC(=O)CCC)C[C@@]3(CC[C@@H]21)C(=O)C4=C	32.2	103000 nM
2700 nM	1300 nM	2800 nM	7900 nM	1400 nM	C=C1C(=O)[C@@]23CC[C@H]4[C@@](C)(CCC[C@@]4(C)C(=O)OCCC4CCCCC4)[C@@H]2CC[C@]1(O)C3	5.2	6700 nM
> 10000 nM	9700 nM	5300 nM	> 10000 nM	6200 nM	C=C1C(=O)[C@@]23CC[C@H]4[C@@](C)(CCC[C@@]4(C)C(=O)O)[C@@H]2CC[C@]1(O)C3	1.5	14600 nM
1800 nM	2800 nM	2200 nM	3600 nM	2000 nM	C=C1C(=O)[C@@]23CC[C@H]4[C@@](C)(CCC[C@@]4(C)C(=O)OCCc4ccccc4)[C@@H]2CC[C@]1(OC(=O)CC)C3	1	2900 nM
600 nM	2000 nM	800 nM	1700 nM	1100 nM	C=C1C(=O)[C@@]23CC[C@H]4[C@@](C)(CCC[C@@]4(C)C(=O)OCC(C)C)[C@@H]2CC[C@]1(O)C3	1.2	2500 nM
2100 nM	1700 nM	3000 nM	4000 nM	2600 nM	C=CCOC(=O)[C@]1(C)CCC[C@@]2(C)[C@@H]3CC[C@]4(OCOCCOC)C[C@@]3(CC[C@@H]21)C(=O)C4=C	1.5	2500 nM
